Results: patent US20250129070A1, “BIFUNCTIONAL ANDROGEN RECEPTOR COMPOUNDS” (priority 2023, published 2025)

system: AR / CBP ternary complex; assay: Ternary complex formation assay (sandwich ELISA, AR capture / CBP detection) in VCaP cell lysates; type: cell-based; details: 1.5 hours treatment, sandwich ELISA (AR capture, CBP or p300 detection)
In short: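 Anti-AR (AR 441)-coated plates capture AR from lysates of VCaP cells grown ≥3 days at 50K/well in 5% charcoal-stripped FBS, dosed with bifunctional for 1.5 h and lysed 30 min at 4 °C. Co-captured CBP/p300 is probed with rabbit mAb and HRP anti-rabbit, then QuantaRed fluorescence (570/585) is read at 0, 5 and 15 min.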

Row | SMILES | EC50
1 | COc1cc(OC2C(C)(C)C(NC(=O)c3ccc(N4CC5(CCC(N6CCC(n7nc(N8CCCc9cc(-c%10cn(C)cn%10)c(C(F)F)cc98)c8c7CCN(C(C)=O)C8)CC6)CC5)C4)cc3)C2(C)C)ccc1C#N (stereo not shown) [Compound 426, 4-[7-[4-[5-acetyl-3-[7-(difluoromethyl)-6-(1-methylimidazol-4-yl)-3,4-dihydro-2H-quinolin-1-yl]-6,7-dihydro-4H-pyrazolo[4,3-c]pyridin-1-yl]-1-piperidyl]-2-azaspiro[3.5]nonan-2-yl]-N-[3-(4-cyano-3-methoxy-phenoxy)-2,2,4,4-tetramethyl-cyclobutyl]benzamide] | < 1 nM
2 | CC(=O)N1CCc2c(c(N3CCCc4cc(-c5cncs5)c(C(F)F)cc43)nn2C2CCN(CC3C(C)CN(c4ncc(C(=O)NC5C(C)(C)C(Oc6ccc(C#N)c(Cl)c6)C5(C)C)cn4)CC3C)CC2)C1 (stereo not shown) [Compound 422, 2-[4-[[4-[5-acetyl-3-[7-(difluoromethyl)-6-thiazol-5-yl-3,4-dihydro-2H-quinolin-1-yl]-6,7-dihydro-4H-pyrazolo[4,3-c]pyridin-1-yl]-1-piperidyl]methyl]-3,5-dimethyl-1-piperidyl]-N-[3-(3-chloro-4-cyano-phenoxy)-2,2,4,4-tetramethyl-cyclobutyl]pyrimidine-5-carboxamide] | < 1 nM
3 | COc1cc(OC2C(C)(C)C(NC(=O)c3ccc(N4CC(C)C(CN5CCC(n6nc(-c7cccc8cc(-c9cnn(C)c9)ncc78)c7c6CCN(C(C)=O)C7)CC5)C(C)C4)cc3)C2(C)C)ccc1C#N (stereo not shown) [Compound 441, 4-[4-[[4-[5-acetyl-3-[3-(1-methylpyrazol-4-yl)-8-isoquinolyl]-6,7-dihydro-4H-pyrazolo[4,3-c]pyridin-1-yl]-1-piperidyl]methyl]-3,5-dimethyl-1-piperidyl]-N-[3-(4-cyano-3-methoxy-phenoxy)-2,2,4,4-tetramethyl-cyclobutyl]benzamide] | < 1 nM
4 | CC(=O)N1CCc2c(c(N3CCCc4cc(-c5cnn(C)c5)c(C(F)F)cc43)nn2C2CCN(C3CC(C#Cc4ncc(C(=O)NC5C(C)(C)C(Oc6ccc(C#N)c(Cl)c6)C5(C)C)cn4)C3)CC2)C1 (stereo not shown) [Compound 295, 2-[2-[3-[4-[5-acetyl-3-[7-(difluoromethyl)-6-(1-methylpyrazol-4-yl)-3,4-dihydro-2H-quinolin-1-yl]-6,7-dihydro-4H-pyrazolo[4,3-c]pyridin-1-yl]-1-piperidyl]cyclobutyl]ethynyl]-N-[3-(3-chloro-4-cyano-phenoxy)-2,2,4,4-tetramethyl-cyclobutyl]pyrimidine-5-carboxamide] | < 1 nM
5 | CC(=O)N1CCc2c(c(N3CCCc4cc(-c5cnn(C)c5)c(C(F)F)cc43)nn2C2CN(C(=O)CC3CCN(c4ncc(C(=O)NC5C(C)(C)C(Oc6ccc(C#N)c(Cl)c6)C5(C)C)cn4)CC3)C2)C1 (stereo not shown) [Compound 163, 2-[4-[2-[3-[5-acetyl-3-[7-(difluoromethyl)-6-(1-methylpyrazol-4-yl)-3,4-dihydro-2H-quinolin-1-yl]-6,7-dihydro-4H-pyrazolo[4,3-c]pyridin-1-yl]azetidin-1-yl]-2-oxo-ethyl]-1-piperidyl]-N-[3-(3-chloro-4-cyano-phenoxy)-2,2,4,4-tetramethyl-cyclobutyl]pyrimidine-5-carboxamide] | < 1 nM
6 | CC(=O)N1CCc2c(c(N3CCCc4cc(-c5cnn(C)c5)c(C(F)F)cc43)nn2C2CCC3(CCCN(C4CN(c5ncc(C(=O)NC6C(C)(C)C(Oc7ccc(C#N)c(Cl)c7)C6(C)C)cn5)C4)C3)CC2)C1 (stereo not shown) [Compound 414, 2-[3-[9-[5-acetyl-3-[7-(difluoromethyl)-6-(1-methylpyrazol-4-yl)-3,4-dihydro-2H-quinolin-1-yl]-6,7-dihydro-4H-pyrazolo[4,3-c]pyridin-1-yl]-2-azaspiro[5.5]undecan-2-yl]azetidin-1-yl]-N-[3-(3-chloro-4-cyano-phenoxy)-2,2,4,4-tetramethyl-cyclobutyl]pyrimidine-5-carboxamide] | < 1 nM
7 | CC(=O)N1CCc2c(c(Nc3ccc(-c4cnn(C)c4)cc3F)nn2C2CCN(C3CCN(c4ncc(C(=O)NC5C(C)(C)C(Oc6ccc(C#N)c(Cl)c6)C5(C)C)cn4)CC3)C2)C1 (stereo not shown) [Compound 8, 2-[4-[3-[5-acetyl-3-[2-fluoro-4-(1-methylpyrazol-4-yl)anilino]-6,7-dihydro-4H-pyrazolo[4,3-c]pyridin-1-yl]pyrrolidin-1-yl]-1-piperidyl]-N-[3-(3-chloro-4-cyano-phenoxy)-2,2,4,4-tetramethyl-cyclobutyl]pyrimidine-5-carboxamide] | > 100 nM
8 | CC(=O)N1CCc2c(c(N3CCCc4cnccc43)nn2C2CCN(CC3CCN(c4ncc(C(=O)NC5C(C)(C)C(Oc6ccc(C#N)c(Cl)c6)C5(C)C)cn4)CC3)CC2)C1 (stereo not shown) [Compound 157, 2-[4-[[4-[5-acetyl-3-(3,4-dihydro-2H-1,6-naphthyridin-1-yl)-6,7-dihydro-4H-pyrazolo[4,3-c]pyridin-1-yl]-1-piperidyl]methyl]-1-piperidyl]-N-[3-(3-chloro-4-cyano-phenoxy)-2,2,4,4-tetramethyl-cyclobutyl]pyrimidine-5-carboxamide] | < 1 nM
9 | CC(=O)N1CCc2c(c(N3CCCc4cc(-c5cnn(C)c5)c(C(F)F)cc43)nn2C2CC3(C2)CN(CC2CN(c4ccc(C(=O)NC5C(C)(C)C(Oc6ccc(C#N)c(Cl)c6)C5(C)C)nn4)C2)C3)C1 (stereo not shown) [Compound 212, 6-[3-[[6-[5-acetyl-3-[7-(difluoromethyl)-6-(1-methylpyrazol-4-yl)-3,4-dihydro-2H-quinolin-1-yl]-6,7-dihydro-4H-pyrazolo[4,3-c]pyridin-1-yl]-2-azaspiro [3.3]heptan-2-yl]methyl]azetidin-1-yl]-N-[3-(3-chloro-4-cyano-phenoxy)-2,2,4,4-tetramethyl-cyclobutyl]pyridazine-3-carboxamide] | 10 to 100 nM
10 | CC(=O)N1CCc2c(c(-c3cccc4cc(-c5cnn(CCOC6CCN(c7ncc(C(=O)NC8C(C)(C)C(Oc9ccc(C#N)c(Cl)c9)C8(C)C)cn7)CC6)c5)ncc34)nn2C2CCOCC2)C1 (stereo not shown) [Compound 138, 2-[4-[2-[4-[8-(5-acetyl-1-tetrahydropyran-4-yl-6,7-dihydro-4H-pyrazolo[4,3-c]pyridin-3-yl)-3-isoquinolyl]pyrazol-1-yl]ethoxy]-1-piperidyl]-N-[3-(3-chloro-4-cyano-phenoxy)-2,2,4,4-tetramethyl-cyclobutyl]pyrimidine-5-carboxamide] | < 1 nM
11 | CC(=O)N1CCc2c(c(N3CCCc4cc(-c5cnn(C)c5)c(C(F)F)cc43)nn2C2CN(CCC3CCN(c4ncc(C(=O)NC5C(C)(C)C(Oc6ccc(C#N)c(Cl)c6)C5(C)C)cn4)CC3)C2)C1 (stereo not shown) [Compound 162, 2-[4-[2-[3-[5-acetyl-3-[7-(difluoromethyl)-6-(1-methylpyrazol-4-yl)-3,4-dihydro-2H-quinolin-1-yl]-6,7-dihydro-4H-pyrazolo[4,3-c]pyridin-1-yl]azetidin-1-yl]ethyl]-1-piperidyl]-N-[3-(3-chloro-4-cyano-phenoxy)-2,2,4,4-tetramethyl-cyclobutyl]pyrimidine-5-carboxamide] | < 1 nM
12 | COc1cc(OC2C(C)(C)C(NC(=O)c3cnc(N4CC5(CCC(N6CCC(n7nc(N8CCCc9cc(-c%10cnn(C)c%10)c(C)cc98)c8c7CCN(C(C)=O)C8)CC6)CC5)C4)nc3)C2(C)C)ccc1C#N (stereo not shown) [Compound 469, 2-[7-[4-[5-acetyl-3-[7-methyl-6-(1-methylpyrazol-4-yl)-3,4-dihydro-2H-quinolin-1-yl]-6,7-dihydro-4H-pyrazolo[4,3-c]pyridin-1-yl]-1-piperidyl]-2-azaspiro [3.5]nonan-2-yl]-N-[3-(4-cyano-3-methoxy-phenoxy)-2,2,4,4-tetramethyl-cyclobutyl]pyrimidine-5-carboxamide] | < 1 nM
13 | CC(=O)N1CCc2c(c(Nc3ccc(-c4cnn(C)c4)cc3F)nn2C2CCN(CCC3CCN(c4ncc(C(=O)NC5C(C)(C)C(Oc6ccc(C#N)c(Cl)c6)C5(C)C)cn4)CC3)C2)C1 (stereo not shown) [Compound 6, 2-[4-[2-[3-[5-acetyl-3-[2-fluoro-4-(1-methylpyrazol-4-yl)anilino]-6,7-dihydro-4H-pyrazolo[4,3-c]pyridin-1-yl]pyrrolidin-1-yl]ethyl]-1-piperidyl]-N-[3-(3-chloro-4-cyano-phenoxy)-2,2,4,4-tetramethyl-cyclobutyl]pyrimidine-5-carboxamide] | > 100 nM
14 | COc1cc(OC2C(C)(C)C(NC(=O)c3ccc(N4CC5(CCC(N6CCC(n7nc(N8CCCc9cc(C#N)c(C(F)F)cc98)c8c7CCN(C(C)=O)C8)CC6)CC5)C4)cc3)C2(C)C)ccc1C#N (stereo not shown) [Compound 452, 4-[7-[4-[5-acetyl-3-[6-cyano-7-(difluoromethyl)-3,4-dihydro-2H-quinolin-1-yl]-6,7-dihydro-4H-pyrazolo[4,3-c]pyridin-1-yl]-1-piperidyl]-2-azaspiro[3.5]nonan-2-yl]-N-[3-(4-cyano-3-methoxy-phenoxy)-2,2,4,4-tetramethyl-cyclobutyl]benzamide] | < 1 nM
15 | COc1cc(OC2C(C)(C)C(NC(=O)c3ccc(N4CCC[C@@H](N5CCC(n6nc(N7CCCc8cc(-c9cnn(C)c9)c(C(F)F)cc87)c7c6CCN(C(C)=O)C7)CC5)C4)cc3)C2(C)C)ccc1C#N (stereo partly drawn) [Compound 400, 4-[(3R)-3-[4-[5-acetyl-3-[7-(difluoromethyl)-6-(1-methylpyrazol-4-yl)-3,4-dihydro-2H-quinolin-1-yl]-6,7-dihydro-4H-pyrazolo[4,3-c]pyridin-1-yl]-1-piperidyl]-1-piperidyl]-N-[3-(4-cyano-3-methoxy-phenoxy)-2,2,4,4-tetramethyl-cyclobutyl]benzamide] | < 1 nM
16 | CNC(=O)N1CCc2c(c(N3CCCc4cc(-c5cnn(C)c5)c(C(F)F)cc43)nn2C2CCN(CCOCc3ncc(C(=O)NC4C(C)(C)C(Oc5ccc(C#N)c(Cl)c5)C4(C)C)cn3)CC2)C1 (stereo not shown) [Compound 86, 1-[1-[2-[[5-[[3-(3-chloro-4-cyano-phenoxy)-2,2,4,4-tetramethyl-cyclobutyl]carbamoyl]pyrimidin-2-yl]methoxy]ethyl]-4-piperidyl]-3-[7-(difluoromethyl)-6-(1-methylpyrazol-4-yl)-3,4-dihydro-2H-quinolin-1-yl]-N-methyl-6,7-dihydro-4H-pyrazolo[4,3-c]pyridine-5-carboxamide] | > 100 nM
